Results: patent US20210283111A1, “Methods of Inhibiting Osteoclastogenesis and Osteoclast Activity” (vTv Therapeutics LLC, priority 2018, published 2021)
Entries after “also recorded” stand apart in the source; their conditions may differ.

Experiments:
[1] = system: osteoclast marker genes (Atp6v0d2, Trap, Mmp9, Cathepsin K, Dcstamp, and Oscar) in RANKL-stimulated RAW 264.7 cells; experiment: Real-time RT-PCR of osteoclast marker gene expression; format: cell-based, Mouse; settings: RAW264.7 cells, RANKL + compound 400 nM; for Dcstamp Fold Change from Control (Ave) / ATP6vd2 Fold Change from Control (Ave) / Cathepsin K Fold Change from Control (Ave) / Oscar Fold Change from Control (Ave) / Mmp9 Fold Change from Control (Ave) / TRAP Fold Change from Control (Ave): 4 days; for Dcstamp Fold Change from Control (Ave): Control 1.00, RANKL alone 4.32; for ATP6vd2 Fold Change from Control (Ave): Control 1.00, RANKL alone 4.69; for Cathepsin K Fold Change from Control (Ave): Control 1.00, RANKL alone 7.83; for Oscar Fold Change from Control (Ave): Control 1.00, RANKL alone 23.88; for Mmp9 Fold Change from Control (Ave): Control 1.00, RANKL alone 42.90; for TRAP Fold Change from Control (Ave): Control 1.00, RANKL alone 132.47
Procedure: (§1) RNA was extracted from RAW264.7 cells using the GenElute mammalian total RNA Miniprep kit (Sigma-Aldrich, St. Louis, Mo.) with on-column genomic DNA digestion according to the manufacturer's instructions. For antioxidant gene expression analysis, RNA was extracted at 1 day after test compound treatment, and the gene expressions of HMOX1 and NQO1 was analyzed. For osteoclast marker gene expression analysis, RNA was extracted at 4 days after RANKL stimulation, and the gene expressions of Atp6v0d2, Cathepsin K, Matrix metalloproteinase 9, Trap, Dcstamp, and Oscar were analyzed. After measurement of the RNA concentration, isolated RNA (500 ng each) was reverse transcribed with iScript cDNA-Supermix (Bio-Rad Laboratories, Hercules, Calif.). Real-time RT-PCR was performed with SsoFast EvaGreen-Supermix (Bio-Rad Laboratories). PCR primers used in the experiments were from PrimerBank and were described in H. Kanzaki, et al. “The Keap1/Nrf2 protein axis plays a role in osteoclast differentiation by regulating intracellular reactive oxygen species signaling,” The Journal of Biological Chemistry 288(32) (2013) 23009-20. Fold changes of gene of interest were calculated by using the […] method with ribosomal protein S18 as reference gene. Data shown are representative of 3 independent experiments performed in triplicate.

[2] = system: RANKL-mediated osteoclastogenesis in RAW264.7 cells; experiment: Osteoclastogenesis assay: TRAP staining of RANKL-stimulated RAW264.7 cells; format: cell-based, Mouse; settings: for No. of TRAP-positive multinucleated cells (Cells/Well): RANKL 100 ng/mL + compound 400 nM, 4 days, Control 0.00, RANKL alone 140.00; for effect on number of TRAP-positive multinucleated cells / RANKL-mediated osteoclastogenesis: RANKL 100 ng/mL, compound 400 nM
Procedure: Cells were plated on 96-well plates (RAW264.7 cells: 10^3 cells/well) in triplicate in the presence or absence of recombinant RANKL (100 ng/ml) with or without the test compounds. After 4 days culture, cells were stained for tartrate-resistant acid phosphatase (TRAP) using an acid phosphatase kit (Sigma-Aldrich, St. Louis, Mo.). Dark red multinucleated cells (>3 nuclei) were counted as TRAP-positive multinucleated cells.

[3] = system: RANKL-stimulated RAW264.7 cells; experiment: Resorption assay on bone resorption assay plate (calcium phosphate substrate); format: cell-based, Mouse; settings: for Ave of Resorbed Area per Filed (%): RANKL 100 ng/mL + compound 400 nM, 7 days, Control 0.00, RANKL alone 1.14; for effect on resorption areas: RANKL + compound 400 nM
Procedure: RAW264.7 cells were plated on synthesized calcium phosphate substrate (bone resorption assay plate; PG Research, Tokyo, Japan) and stimulated with RANKL in the presence or absence of test compounds. After 7 days of cultivation, cells were removed with bleach, and the calcium phosphate substrate was washed with distilled water and then dried. Photographs were taken, and the average of the resorbed area per field was calculated from 12 images of each sample, using ImageJ software (National Institutes of Health, Bethesda).

[4] = system: RANKL-triggered intracellular ROS production in RAW264.7 cells; experiment: Intracellular ROS detection by flow cytometry (BES-So-AM); format: cell-based, Mouse; settings: pretreated 1 h, RANKL 6 h
Procedure: Cells were pretreated with or without Compound HPP-4 for 1 h, stimulated with soluble RANKL for 6 h, washed with PBS, and collected. Cells were then incubated with fluorescent superoxide probe (BES-So-AM; Wako Pure Chemical) on ice. After washing, intracellular ROS was detected using an AccuriC6 flow cytometer (BD Biosciences, San Jose, Calif., USA). The viable monocyte/macrophage fraction was gated on a forward scatter/side scatter plot, and ROS levels were monitored in the FL-1 channel. Data shown are representative of 3 independent experiments performed in triplicated.

[5] = system: HMOX1 and NQO1 in RAW264.7 cells; experiment: Real-time RT-PCR of antioxidant gene expression; format: cell-based, Mouse; settings: 400 nM
Procedure: as §1

[6] = system: LPS-mediated bone destruction in mice calvaria; experiment: In vivo bone destruction model (LPS-induced calvarial bone destruction, μCT); parameters: species or system BALB/c mice
Procedure: The animal experimental protocol was reviewed and approved by the Institutional Animal Care and Use committee, Tsurumi University (approval number; 28A030). All animals were treated ethically, and animal experiments were performed in compliance with the Regulations for Animal Experiments and Related Activities at Tsurumi University. The calvarial bone destruction mouse model, induced by repeated LPS injections. Twenty 7-week-old male BALB/c mice (Clea Japan, Tokyo, Japan) were used. Mice were randomly assigned to four groups (n=5 each): a Dimethyl sulfoxide (DMSO)-injected group (control group; 10 μl PBS+2 μl DMSO), a HPP-4-injected group (HPP-4 group; 10 μl PBS+2 μl of Cpd. HPP-4 2 μM), an LPS-induced bone resorption group (LPS group; 10 μl of 1 μg/μl LPS+2 μl DMSO) and an LPS-induced bone resorption and Cpd. HPP-4-injected group (LPS+HPP-4 group; 10 μl of 1 μg/μl LPS+2 μl of HPP-4 2 μM), Injections were performed under anaesthesia with a 30-gauge needle at a point on the midline of the skull located between the eyes on days 1, 3, 5, 7, and 9. On day 11, mice were sacrificed by cervical dislocation and cranial tissue samples were fixed overnight with 4% paraformaldehyde in PBS.
Fixed cranial tissue samples were subsequently scanned with an X-ray microcomputed tomography […] system (inspeXio SMX-225CT; Shimadzu Corp., Kyoto, Japan). After reconstitution, the DICOM files were rendered into three-dimensional images using Pluto software. Percentage of resorbed area, calculated from the ratio of the number of pixels in the resorbed area in the cranial bone to the number of pixels in the total analyzed image of the cranial bone, was calculated with the ImageJ software. The region of interest was set between the fronto-parietal (coronal) suture and parietooccipital (lambdoidal) suture.

Row | Structure (SMILES) | RANKL-mediated upregulation of osteoclast marker genes [1] | difference from RANKL alone in Atp6v0d2, Mmp9, and Oscar expression [1] | Dcstamp Fold Change from Control (Ave) [1] | ATP6vd2 Fold Change from Control (Ave) [1] | Cathepsin K Fold Change from Control (Ave) [1] | Oscar Fold Change from Control (Ave) [1] | Mmp9 Fold Change from Control (Ave) [1] | TRAP Fold Change from Control (Ave) [1] | No. of TRAP-positive multinucleated cells (Cells/Well) [2] | effect on number of TRAP-positive multinucleated cells / RANKL-mediated osteoclastogenesis [2] | Ave of Resorbed Area per Filed (%) [3] | effect on resorption areas [3] | RANKL-mediated increase in intracellular ROS (superoxide) [4] | HMOX1 Fold Change from Control (Ave) ([5]; 1 day, Control 1.00) | NQO1 Fold Change from Control (Ave) ([5]; 1 day, Control 1.00) | expression of antioxidant enzymes NQO1 and HMOX1 ([5]; p<0.05 relative to control) | LPS-mediated bone destruction ([6]; local injection of HPP-4, μCT) | Percent Resorbed (%), HPP-4 alone ([6]; local injection of HPP-4 without LPS on days 1, 3, 5, 7, 9, μCT day 11, Control 0.15) | Percent Resorbed (%), LPS + HPP-4 ([6]; local injection of LPS + HPP-4 on days 1, 3, 5, 7, 9, μCT day 11, Control 0.15, LPS alone 4.27)
1 | COCCNC(=O)c1cnc2c(c1)nc(Nc1nc3ccc(OC(F)(F)F)cc3s1)n2C [HPP-1, 3-Methyl-2-(6-trifluoromethoxy-benzothiazol-2-ylamino)-3H-imidazo[4,5-b]pyridine-6-carboxylic acid (2-methoxy-ethyl)-amide] | weak suppression | no significant differences | 3.33 Fold Change from Control | 3.52 Fold Change from Control | 5.96 Fold Change from Control | 20.22 Fold Change from Control | 39.73 Fold Change from Control | 106.62 Fold Change from Control | 139.33 Cells/Well | no effect | 1.21% |  |  |  |  |  |  |  | 
2 | CN(C)C(=O)CNC(=O)c1ccc2c(c1)nc(Nc1nc3ccc(C(F)(F)F)cc3s1)n2C [HPP-2, 1-Methyl-2-(6-trifluoromethyl-benzothiazol-2-ylamino)-1H-benzimidazole-5-carboxylic acid dimethylcarbamoylmethyl-amide] | suppressed |  | 2.55 Fold Change from Control | 3.09 Fold Change from Control | 4.42 Fold Change from Control | 10.03 Fold Change from Control | 24.02 Fold Change from Control | 73.81 Fold Change from Control | 97.67 Cells/Well | no effect | 0.78% |  |  |  |  |  |  |  | 
3 | C[C@H](O)CNC(=O)c1ccc2c(c1)nc(Nc1nc3ccc(OC(F)(F)F)cc3s1)n2C [HPP-3, 1-Methyl-2-(6-trifluoromethoxy-benzothiazol-2-ylamino)-1H-benzoimidazole-5-carboxylic acid ((S)-2-hydroxy-propyl)-amide] | suppressed |  | 2.14 Fold Change from Control | 2.36 Fold Change from Control | 3.31 Fold Change from Control | 6.45 Fold Change from Control | 23.89 Fold Change from Control | 59.23 Fold Change from Control | 65.00 Cells/Well | decreased | 0.22% | reduced the resorption areas such that there was no significant difference from control |  |  |  |  |  |  | 
4 | Cn1c(Nc2nc3ccc(C(F)(F)F)cc3s2)nc2cc(C(=O)NCCOCCO)ccc21 [HPP-4, 1-Methyl-2-(6-trifluoromethyl-benzothiazol-2-ylamino)-1H-benzoimidazole-5-carboxylic acid [2-(2-hydroxy-ethoxy)-ethyl]-amide] | suppressed |  | 2.39 Fold Change from Control | 2.59 Fold Change from Control | 2.99 Fold Change from Control | 8.18 Fold Change from Control | 20.21 Fold Change from Control | 59.76 Fold Change from Control | 29.00 Cells/Well | decreased the number of TPAP-positive multinucleated cells to that of control | 0.23% | reduced the resorption areas such that there was no significant difference from control | inhibited | 1.62 Fold Change from Control | 2.67 Fold Change from Control | increased | ameliorated LPS-induced bone destruction; also recorded: significantly inhibited LPS-mediated bone destruction | 0.42% | 1.84%
